From ChEMBL document CHEMBL5528003 (Eur J Med Chem, 2024) come the findings set out here.

Structures are written as SMILES. Values after ≈ are worked out from the molar mass of the structure shown. Active and inactive are the calls of the source.

Series [1] can be described thus: Metabolic stability in rat liver microsomes assessed as parent compound remaining incubated for 60 mins in presence of NADPH by LC-MS/MS analysis. Type of series: ADME, Microsome. The note with it: read-out: Stability. On the technique in general: Liver microsomes are vesicles of endoplasmic reticulum, rich in cytochrome P450 enzymes.
Series [2] can be described thus: Metabolic stability in human liver microsomes assessed as parent compound remaining incubated for 60 mins in presence of NADPH by LC-MS/MS analysis. To be noted: read-out: Stability. Type of series: ADME, Microsome.
The target in series [3] is T1, Estrogen receptor (Homo sapiens, UniProt P03372).
T1 sequence (P03372 whole entry): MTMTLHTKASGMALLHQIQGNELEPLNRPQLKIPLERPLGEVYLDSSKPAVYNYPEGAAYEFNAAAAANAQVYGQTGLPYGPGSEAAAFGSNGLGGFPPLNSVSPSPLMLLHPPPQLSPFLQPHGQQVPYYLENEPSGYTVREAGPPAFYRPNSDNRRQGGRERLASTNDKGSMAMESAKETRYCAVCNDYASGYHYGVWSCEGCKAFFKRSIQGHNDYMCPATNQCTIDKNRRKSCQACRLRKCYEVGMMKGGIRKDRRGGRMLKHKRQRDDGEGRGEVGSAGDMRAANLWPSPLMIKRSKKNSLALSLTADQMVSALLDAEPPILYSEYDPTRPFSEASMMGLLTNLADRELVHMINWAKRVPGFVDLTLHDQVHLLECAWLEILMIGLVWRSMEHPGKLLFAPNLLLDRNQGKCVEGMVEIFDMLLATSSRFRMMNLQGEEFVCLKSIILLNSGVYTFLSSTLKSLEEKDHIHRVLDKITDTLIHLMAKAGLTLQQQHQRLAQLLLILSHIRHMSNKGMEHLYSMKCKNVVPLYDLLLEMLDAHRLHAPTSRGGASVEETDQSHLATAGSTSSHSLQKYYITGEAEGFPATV
As to the kind of experiment: Induction of Estrogen receptor degradation in wildtype human MCF7 cells assessed as reduction in estrogen receptor level incubated for 24 hrs by Western blot analysis. Format: cell-based. On the technique in general: In western blotting, separated proteins are transferred to a membrane and probed.

In series [4] the test system is MCF7. Kind of series: Antiproliferative activity against wildtype human MCF7 cells assessed as inhibition of cell proliferation incubated for 6 days in presence of beta-estradiol by CellTiter-Glo assay. Format: functional, cell-based. The note with it: MCF7, 144 h.
The subject of series [5] is T47D. Kind of series: Antiproliferative activity against human T47D cells assessed as inhibition of proliferation incubated for 6 days by CellTiter-Glo assay. The note with it: 144 h. A general note: ATP-based viability assays read luminescence as a measure of living cells.
Series [6] can be described thus: Half-life in Sprague-Dawley rat at 25 mg/kg, IM measured after 49 days by LC-MS/MS analysis. Format: ADME, organism-based. To be noted: in vivo, time 49 day.
Series [7] is described as follows: Tmax in Sprague-Dawley rat at 25 mg/kg, IM measured after 49 days by LC-MS/MS analysis. Type of series: ADME, organism-based. To be noted: in vivo, time 49 day.
Series [8] is described as follows: Cmax in Sprague-Dawley rat at 25 mg/kg, IM measured after 49 days by LC-MS/MS analysis. The note with it: in vivo, time 49 day. Format: ADME, organism-based.
Series [9] can be described thus: AUClast in Sprague-Dawley rat at 25 mg/kg, IM measured after 49 days by LC-MS/MS analysis. Format: ADME, organism-based. The note with it: in vivo, 1176 h, time 49 day.
A short description of series [10]: Apparent volume of distribution during terminal phase in Sprague-Dawley rat at 25 mg/kg, IM measured after 49 days by LC-MS/MS analysis. Type of series: ADME, organism-based. To be noted: in vivo, 1176 h, time 49 day.
Series [11] in a line: MRT in Sprague-Dawley rat at 25 mg/kg, IM measured after 49 days by LC-MS/MS analysis. Type of series: ADME, organism-based. To be noted: in vivo, time 49 day.
Series [12] deals with T47D. As to the kind of experiment: Antiproliferative activity against human T47D cells transfected with wildtype ESR1 assessed as inhibition of cell proliferation incubated for 5 days by CellTiter-Glo assay. The note with it: 120 h.
Series [13] deals with T47D. As to the kind of experiment: Antiproliferative activity against human T47D cells transfected with ESR1 Y537S mutant assessed as inhibition of cell proliferation incubated for 5 days by CellTiter-Glo assay. To be noted: 120 h.
Series [14] has as its system T47D. As to the kind of experiment: Antiproliferative activity against human T47D cells transfected with ESR1 D538G mutant assessed as inhibition of cell proliferation incubated for 5 days by CellTiter-Glo assay. To be noted: 120 h.
Series [15] in a line: Solubility of compound in long acting formulation containing ethanol, benzyl alcohol, benzyl benzoate and castor oil incubated for 1 days by LC-MS/MS analysis. Format: physicochemical. To be noted: 24 h; time 1 day.
Series [16] is described as follows: Drug concentration in BALB/cNj Foxn1nu/Gpt mouse plasma xenografted with human MCF-7/TAMR-1 cells at 2.0 mg, IM administered for 28 days. To be noted: time 28 day. Type of series: ADME, cell-free.
A short description of series [17]: Drug concentration in BALB/cNj Foxn1nu/Gpt mouse tumor xenografted with human MCF-7/TAMR-1 cells at 2.0 mg, IM administered for 28 days. To be noted: time 28 day, read-out: Ct. Format: ADME, tissue-based, Neoplasm.
A short description of series [18]: In vivo antagonist activity at Estrogen receptor in BALB/cNj Foxn1nu/Gpt mouse xenografted with human MCF-7/TAMR-1 cells assessed as fold reduction in uterus wet weight to body weight ratio at 2.0 mg, IM administered for 28 days. Format: functional. The note with it: time 28 day.
Series [19] concerns Mus musculus. As to the kind of experiment: Invivo antagonist activity at Estrogen receptor in BALB/cNj Foxn1nu/Gpt mouse xenografted with human MCF-7/TAMR-1 cells assessed as single-layered cell phenotype of epithelial cells in uterus at 2.0 mg, IM administered for 28 days by H&E staining based analysis. To be noted: time 28.0 day. Format: functional.
Series [20] has as its system Mus musculus. As to the kind of experiment: In vivo antagonist activity at Estrogen receptor in BALB/cNj Foxn1nu/Gpt mouse xenografted with human MCF-7/TAMR-1 cells assessed as reduction in ER level in tumor at 2.0 mg, IM administered for 28 days by Western blot analysis. Format: functional. The note with it: time 28.0 day.
Series [21] concerns Mus musculus. Kind of series: In vivo antagonist activity at Estrogen receptor in BALB/cNj Foxn1nu/Gpt mouse xenografted with human MCF-7/TAMR-1 cells assessed as reduction in PgR level in tumor at 2.0 mg, IM administered for 28 days by Western blot analysis. Format: functional. To be noted: time 28.0 day.
Series [22] concerns the target T2, Estrogen receptor (Homo sapiens) (UniProt P03372).
T2 sequence (whole entry): T1 sequence (P03372 whole entry)
The note with it: MCF7, time <= 48.0 hrs.

Series [23] has as its target T2, Estrogen receptor (Homo sapiens). To be noted: T47D, time <= 48.0 hrs.
Series [24] deals with MCF7. To be noted: Homo sapiens, dose 4.0 nM, time 144.0 hrs.

On to `C[C@@H]1Cc2c([nH]c3ccccc23)[C@@H](c2c(F)cc(NC3CN(CC[S+]([O-])CCCC(F)(F)C(F)(F)F)C3)cc2F)N1CC(F)(F)CO` (stereo partly specified), for which the results for the remaining at 1 h in [1] and in [2] were 78% and 29.1%, respectively.

Turning to `C[C@@H]1Cc2c([nH]c3ccccc23)[C@@H](c2c(F)cc(NC3CN(CCC[S+]([O-])CCCC(F)(F)C(F)(F)F)C3)cc2F)N1CC(F)(F)F` (stereo partly specified), the half-maximal degradation concentration (DC50) (commonly the concentration giving 50% degradation) in series [3] came to 1.7 nM. In addition, in series [4], the IC50 (usually the concentration that gives 50% inhibition) is 2.7 nM. Also, the remaining at 1 h came out at 93.7% in series [1] and 57.4% in [2].

As for `C[C@]12CC[C@@H]3c4ccc(O)cc4C[C@@H](CCCCCCCCC[S+]([O-])CCCC(F)(F)C(F)(F)F)[C@H]3[C@@H]1CC[C@@H]2O` (stereo partly specified) [FULVESTRANT], the IC50 in [4] came out at 0.7 nM; in series [5], 2.3 nM; in [12] it was 2.21 nM; in [13], 5.94 nM; in series [14], 58.6 nM. In addition, the remaining at 1 h in series [1] turned out to be 9.6%; in [2], 13%. Besides, the half-life (usually the time needed for the level to fall by half in the phase considered) in series [6] is 28.6 days. The time of peak concentration (Tmax) (in general, the time at which the peak concentration occurs) in series [7] is 6.96 h. For the same compound, the Cmax (usually the peak of the concentration-time curve) in series [8] came out at 36.7 ng/mL. The same compound gave an AUClast in [9] of 325.96 ng·days/mL. In [10], the Vz/F came out at 2158.67 L/kg. In series [11], the MRT (in general, the average time that molecules of a dose stay in the body) is 18.3 days. Further, the solubility – broadly, the concentration that dissolves in the medium under given conditions – in [15] came to 53.17 mg/mL (≈ 87.6 mM). Further, the concentration at 672 h in series [16] was found to be 30.8 ng/mL; in series [17], 83.4 ng/mL. Further, the “fold change (FC)” value in [18] is around 2. In addition, the outcome in series [19], in series [20] and in series [21] was Active. Besides, the T1/2 turned out to be 1.3 h in [22] and 14.6 h in [23]. For the same compound, the inhibition result in series [24] is “Active”.

`C[C@@H]1Cc2c([nH]c3ccccc23)[C@@H](c2c(F)cc(OC3CN(CC[S+]([O-])CCCC(F)(F)C(F)(F)F)C3)cc2F)N1CC(F)(F)F` (stereo partly specified): the remaining at 1 h amounted to 53.7% in series [1] and 24.9% in series [2].
